The values that follow come from US20110166078A1, “OLIGOSACCHARIDE COMPOUNDS FOR USE IN MOBILISING STEM CELLS” (ENDOTIS PHARMA, priority 2008, published 2011).

Assay [1] relates to control and VEGF-A-stimulated angiogenesis (endothelial tubules, HUVEC/NHDF co-culture). Nature of the assay: In vitro angiogenesis assay (endothelial tubule formation, AngioKit). It is filed as cell-based, human. The conditions noted are these: 30 μM compound; anti-CD31 ELISA and AngioSys image analysis; FIGS. 13-15. From the text:
These experiments are also known as endothelial tubule formation assays and they are used to evaluate the compound effects on in vitro angiogenesis (the neo-formation of blood vessels from pre-existing ones). This process is critical in tumour development as bloodstream brings all the necessary nutrients and oxygen to cancer cells.
The assay uses a commercially available product (AngioKit) specially designed for screening experiments. The product consists of a 24 or 96-well culture plate containing endothelial and fibroblast cells. A similar assay has been developed “in-house” using 48-well culture plates.
Endothelial cells will, on a ten-day period, develop into a branched network of endothelial tubules or “primitive” blood vessels. This process requires a co-culture with fibroblasts, these latter cells secreting essential growth factors for endothelial cells. At the end of the incubation period (about ten days), angiogenesis is monitored both by ELISA and image analysis software quantifying different blood vessel parameters (number and average length of tubules, field area, number of junctions for example). All reagents and material (except the oligosaccharide compounds, the VEGF-A and the 48-well plate AngioKits) are bought from TCS CellWorks (http://www.tcscellworks.co.uk) which provides: • 24 and 96-well plate AngioKits (including culture medium) • Anti-CD31 (a cell marker specifically expressed on endothelial cells) reagents for ELISA and tubule staining procedures. • AngioSys image analysis software
For home-made 48-well plate AngioKits, NHDF and HUVEC cells were independently purchased while TCS CellWorks culture medium and protocol were used.
The cell medium is replaced with fresh one (day 1) and cells are incubated at 37° C. with the compounds of interest (oligosaccharides and/or angiogenic proteins, such as growth factors). During the course of the experiment, the culture medium (including oligosaccharides and/or angiogenic proteins) is replaced at days 4 and 7.
At day 10, the assay is terminated by the labelling of endothelial cells by an ELISA procedure (indirect colorimetric titration of the endothelial cell number through dosage of the endothelial-specific CD31 marker) and the staining of endothelial tubules. Photographs of stained tubules are taken and analysed with the AngioSys image analysis software.
In the following assay the effects of compounds 239, 240, 246, 247, 248, 249, 252, 254, 255 and 257 on in vitro angiogenesis were measured (all compounds were added at the 30 μM concentration). […] For the data presented in FIG. 13, AngioSys image analyses are shown on FIG. 14. Photographs of endothelial tubules are shown on the side of the anti-CD31 ELISA (see FIGS. 13 and 15).
(ELISA stands for enzyme-linked immunosorbent assay.)

The next assay concerns the target T1, heparanase (Homo sapiens, UniProt Q9Y251).
T1 sequence (Q9Y251 158-543 limits assumed): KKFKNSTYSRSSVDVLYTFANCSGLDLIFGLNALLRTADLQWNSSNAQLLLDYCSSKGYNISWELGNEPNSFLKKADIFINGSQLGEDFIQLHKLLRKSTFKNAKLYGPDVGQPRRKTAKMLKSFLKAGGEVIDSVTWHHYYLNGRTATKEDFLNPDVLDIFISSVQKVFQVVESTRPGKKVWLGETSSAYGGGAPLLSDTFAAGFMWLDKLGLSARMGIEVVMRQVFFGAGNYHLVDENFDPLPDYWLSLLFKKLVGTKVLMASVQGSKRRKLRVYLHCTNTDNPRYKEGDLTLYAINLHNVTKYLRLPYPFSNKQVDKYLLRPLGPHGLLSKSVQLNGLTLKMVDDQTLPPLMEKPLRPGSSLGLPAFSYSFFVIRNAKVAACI
T1 sequence (Q9Y251 36-109 limits assumed): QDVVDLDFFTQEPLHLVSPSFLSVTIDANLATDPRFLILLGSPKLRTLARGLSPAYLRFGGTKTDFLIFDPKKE
In words: Anti-heparanase activity (fondaparinux degradation / factor Xa chromogenic assay). Format: biochemical. On the procedure: To determine the compounds IC50 values for the heparanase target, we adapted an assay based on the ability of heparanase to degrade fondaparinux (Sanofi patent No. 287 3377 FR), and the capacity of fondaparinux to inhibit factor Xa activity via AT III binding. This assay was carried out on a STA Compact robot (Diagnostica Stago). Briefly, different concentrations of compounds were added to a mixture containing the heparanase enzyme and fondaparinux and after a time-fixed incubation period, AT III, Factor Xa and a chromogenic substrate (CBS 31.39) were sequentially added to the reaction mix. Production of paranitroanilin resulting from the degradation of the chromogenic substrate CBS 31.39 was monitored at 405 nm. Data obtained for the different concentration points were plotted using a four-parameter fit model and IC50 determined.

The next assay concerns the target SDF-1α (Homo sapiens, UniProt P48061). In words: SDF-1α/heparin competition assay by SPR (Biacore). Format: binding. The conditions noted are these: 96 nM SDF-1α, biotinylated low molecular weight heparin (6 kDa), Sensorchip SA. The method, then: (§1) Heparin or low molecular weight heparin (6 kDa) from SIGMA were biotinylated at the reducing end and immobilized on a Biacore sensorchip. Different concentrations of the compounds of the present invention were co-incubated at a fixed concentration of targets: FGF-2, PDGF-β, VEGF-A or SDF-1α for 30 minutes. The mixture was then injected onto the streptavidin control (control reference) and HP surfaces. Only free growth factor (GF) or chemokine, i.e. the target molecules not bound to compounds of the present invention, were trapped on the heparin surface. From the binding of free targets on heparin, the percentages of inhibition were calculated and then reported in function of compound concentrations. The plot was fitted with a four-parameter model and IC50 was calculated. The 0% inhibition value was obtained for the injection of the studied target in running-buffer, and the 100% inhibition value was obtained for the injection of the studied target co-incubated with 10 μM of low molecular weight heparin 6 kDa.
A SDF-1α/heparin competition assay using the Biacore technology was performed using the following conditions: 96 nM SDF-1α, biotinylated low molecular weight heparin (6 kDa), Reference Streptavidin, Sensorchip SA, HBS-P, Regeneration NaCl 2M
(§2) IC50 values of compounds of the present invention were determined using the Biacore technology for the growth factor and chemokine/heparin competition assays that contained the following proteins: VEGF-A, SDF-1α, FGF-2 and PDGF-β.
Background: Surface plasmon resonance follows binding to a sensor surface in real time, without labels.

The target in a further assay is T2, VEGF-A (Homo sapiens, UniProt P15692).
T2 sequence (P15692 27-191 isoform P15692-4): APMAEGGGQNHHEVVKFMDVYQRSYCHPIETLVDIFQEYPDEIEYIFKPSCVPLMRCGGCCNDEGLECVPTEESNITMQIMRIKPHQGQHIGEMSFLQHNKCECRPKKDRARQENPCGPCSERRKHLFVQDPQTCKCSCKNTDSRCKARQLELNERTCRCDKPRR
In words: VEGF-A/heparin competition assay by SPR (Biacore). It is filed as binding. The conditions noted are these: 10 nM VEGF-A, biotinylated low molecular weight heparin, Sensorchip SA. The method, then:
as §1
A VEGF-A/heparin competition assay using the Biacore technology was performed using the following conditions: 10 nM VEGF-A, biotinylated low molecular weight heparin, Reference Streptavidin, Sensorchip SA, HBS-P, Regeneration NaCl 2M.
as §2

In another assay the target is FGF-2 (Homo sapiens, UniProt P09038). Nature of the assay: FGF-2/heparin competition assay by SPR (Biacore). Format: binding. The conditions noted are these: 10 nM FGF-2, biotinylated heparin, Sensorchip C1. On the procedure: as §1
A FGF-2/heparin competition assay using the Biacore technology was performed in the following conditions: 10 nM FGF-2, biotinylated heparin, Reference Streptavidin, Sensorchip C1, PBS-T 0.02%, Regeneration NaCl 2M
as §2

For `C#CCCCOC1OC(COS(=O)(=O)[O-])C(OC2OC(C(=O)[O-])C(OC3OC(COS(=O)(=O)[O-])C(OC4OC(C(=O)[O-])C(OC5OC(COS(=O)(=O)[O-])C(OC6OC(C(=O)[O-])C(OCc7ccccc7)C(OCc7ccccc7)C6OS(=O)(=O)[O-])C(OCc6ccccc6)C5NS(=O)(=O)[O-])C(OCc5ccccc5)C4OS(=O)(=O)[O-])C(OCc4ccccc4)C3NS(=O)(=O)[O-])C(OCc3ccccc3)C2OS(=O)(=O)[O-])C(OCc2ccccc2)C1NS(=O)(=O)[O-].[Na+].[Na+].[Na+].[Na+].[Na+].[Na+].[Na+].[Na+].[Na+].[Na+].[Na+].[Na+]` (stereo not shown) [Compound 239], the “inhibition of control and/or VEGF-A-stimulated angiogenesis” value in assay [1] was “inhibition of control and/or VEGF-A-stimulated angiogenesis”. Further, the IC50 against heparanase was 9.2 nM; on SDF-1α, 43 nM; on VEGF-A, 5.2 nM; at FGF-2, 4.5 nM.

In the case of `C#CCCCOC1OC(COS(=O)(=O)[O-])C(OC2OC(C(=O)[O-])C(OC3OC(COS(=O)(=O)[O-])C(OC4OC(C(=O)[O-])C(OC5OC(COS(=O)(=O)[O-])C(OC6OC(C(=O)[O-])C(OC7OC(COS(=O)(=O)[O-])C(OC8OC(C(=O)[O-])C(OCc9ccccc9)C(OCc9ccccc9)C8OS(=O)(=O)[O-])C(OCc8ccccc8)C7NS(=O)(=O)[O-])C(OCc7ccccc7)C6OS(=O)(=O)[O-])C(OCc6ccccc6)C5NS(=O)(=O)[O-])C(OCc5ccccc5)C4OS(=O)(=O)[O-])C(OCc4ccccc4)C3NS(=O)(=O)[O-])C(OCc3ccccc3)C2OS(=O)(=O)[O-])C(OCc2ccccc2)C1NS(=O)(=O)[O-].[Na+].[Na+].[Na+].[Na+].[Na+].[Na+].[Na+].[Na+].[Na+].[Na+].[Na+].[Na+].[Na+].[Na+].[Na+].[Na+]` (stereo not shown) [Compound 240], the “inhibition of control and/or VEGF-A-stimulated angiogenesis” value in assay [1] is “inhibition of control and/or VEGF-A-stimulated angiogenesis”. Besides, the IC50 against heparanase was 0.42 nM; on SDF-1α, 23 nM; on VEGF-A, 4.8 nM; at FGF-2 it was 3.6 nM.

In general, IC50 refers to the point on the concentration scale where inhibition reaches its midpoint.
